Measured values from paper PMC11191095, “QSAR Reveals Decreased Lipophilicity of Polar Residues Determines the Selectivity of Antimicrobial Peptide Activity” (ACS Omega, 2024).
Where a SMILES comes first, the peptide text is derived from it.

What was measured:
E. coli LEC001 = assay: microbe, parasite or virus in culture; format: cell-based, Escherichia coli; conditions: E. coli LEC001 (R); shown in µM
Procedure, shortened: (§1)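 Peptides 128→2 μg/mL, 2-fold series; inoculum ~5 × 10^5 CFU/mL from overnight culture (OD600 0.01, mixed 1:1). MHB non-cation-adjusted for bacteria, RPMI 1640 + 2% glucose for fungi. 37 °C, 20 h, OD600. MIC50/MIC90 at 50%/90% inhibition; n ≥ 3.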

E. coli NCTC 12923 = assay: microbe, parasite or virus in culture; format: cell-based, Escherichia coli; conditions: E. coli NCTC 12923 (S); shown in µM
Procedure, shortened: as §1

P. aeruginosa NCTC 13437 = assay: microbe, parasite or virus in culture; format: cell-based, Pseudomonas aeruginosa; conditions: P. aeruginosa NCTC 13437 (R); shown in µM
Procedure, shortened: as §1

P. aeruginosa PAO1 = assay: microbe, parasite or virus in culture; format: cell-based, Pseudomonas aeruginosa; conditions: P. aeruginosa PAO1 (S)
Procedure, shortened: as §1

A. baumannii ATCC 17978 = assay: microbe, parasite or virus in culture; format: cell-based, Acinetobacter baumannii; conditions: A. baumannii ATCC 17978 (S); shown in µM
Procedure, shortened: as §1

A. baumannii AYE = assay: microbe, parasite or virus in culture; format: cell-based, Acinetobacter baumannii; conditions: A. baumannii AYE (R); shown in µM
Procedure, shortened: as §1

K. pneumoniae M6 = assay: microbe, parasite or virus in culture; format: cell-based, Klebsiella pneumoniae; conditions: K. pneumoniae M6 (S); shown in µM
Procedure, shortened: as §1

K. pneumoniae NCTC 13368 = assay: microbe, parasite or virus in culture; format: cell-based, Klebsiella pneumoniae; conditions: K. pneumoniae NCTC 13368 (R); shown in µM
Procedure, shortened: as §1

S. aureus (MRSA) 1199B = assay: microbe, parasite or virus in culture; format: cell-based, Staphylococcus aureus; conditions: S. aureus (MRSA) 1199B (R); shown in µM
Procedure, shortened: as §1

[1] = test system: S. aureus (MRSA) NCTC 13616; assay: microbe, parasite or virus in culture; format: cell-based, Staphylococcus aureus; conditions: S. aureus (MRSA) NCTC 13616 (R); shown in µM
Procedure, shortened: as §1

S. aureus (MRSA) USA300 = assay: microbe, parasite or virus in culture; format: cell-based, Staphylococcus aureus; conditions: S. aureus (MRSA) USA300 (R); shown in µM
Procedure, shortened: as §1

[2] = test system: S. aureus (MSSA) ATCC 9144; assay: microbe, parasite or virus in culture; format: cell-based, Staphylococcus aureus; conditions: S. aureus (MSSA) ATCC 9144 (S); shown in µM
Procedure, shortened: as §1

C. auris TDG 1912 = assay: microbe, parasite or virus in culture; format: cell-based, Candida auris; conditions: C. auris TDG 1912
Procedure, shortened: as §1

C. albicans NCPF 3281 = assay: microbe, parasite or virus in culture; format: cell-based; conditions: C. albicans NCPF 3281; shown in µM
Procedure, shortened: as §1

C. glabrata NCPF 8018 = assay: microbe, parasite or virus in culture; format: cell-based; conditions: C. glabrata NCPF 8018; shown in µM
Procedure, shortened: as §1

C. krusei NCPF 3876 = assay: microbe, parasite or virus in culture; format: cell-based; conditions: C. krusei NCPF 3876; shown in µM
Procedure, shortened: as §1

[3] = test system: C. parapsilosis NCPF 3209; assay: microbe, parasite or virus in culture; format: cell-based; conditions: C. parapsilosis NCPF 3209; shown in µM
Procedure, shortened: as §1

C. tropicalis NCPF 8760 = assay: microbe, parasite or virus in culture; format: cell-based; conditions: C. tropicalis NCPF 8760; shown in µM
Procedure, shortened: as §1

human erythrocytes = assay: In vitro hemolytic activity; format: cell-based; conditions: human erythrocytes in PBS, 1 h, 37 °C, OD550; from dose response curves
Description: Potential erythrocyte hemolysis was tested by incubating serial dilutions of the AMPs in PBS with freshly collected erythrocytes at a ratio of 1:1 in 96-well polypropylene V-shape plates for 1 h at 37 °C. Control wells were treated with 0.1% Triton-X-100 to ensure complete lysis or PBS-only to represent no lysis. The erythrocytes were collected by centrifugation and the OD550 of the supernatant was measured using a plate reader. The percentage hemolysis was calculated as [drawing 1] 1 where Apeptide is the absorbance value of erythrocytes exposed to a known peptide concentration, Agrowth control is the absorbance of erythrocytes exposed to 0.1% Triton-X-100 and Ablank is the absorbance of erythrocytes exposed to the PBS. The concentrations at which a peptide caused 10% (HC10) and 50% (HC50) hemolysis was determined from the dose response curves.

HaCat cell line = assay: In vitro HaCat cytotoxicity (MTT); format: cell-based, human; conditions: 21 h exposure, OD570, relative to untreated control
Description: The HaCat cell line (Cellonex, South Africa) was cultured in Dulbecco’s Modified Eagle Medium (DMEM) supplemented with 10% heat-inactivated fetal calf serum (FCS) and 1% antibiotic-antimycotic (Abs) and maintained at 5–10% CO2, 37 °C, 95% humidity. For cytotoxicity screening, 5.56 × 10^4 cells/mL were plated in a 96-well plate. After 24 h incubation, the cells are initially exposed to each peptide at a concentration of 256 μg/mL or 0.1% Triton-X-100 as the control for 21 h. If cytotoxicity was observed, at a level of significance of p < 0.0001 compared with the untreated control after 21 h, a dose-response assay was undertaken. Cell viability was determined by adding 10% 3-(4,5-dimethyl-2-thiazolyl)-2,5-diphenyl-2H-tetrazolium bromide (MTT) (1 mg/mL), to each well and after a further 3 h incubation the media was discarded, and the formazan crystals dissolved by adding 25% DMSO in ethanol. The absorbance was measured at OD570 by using the FLUOstar Omega multidetection microplate reader (BMG Labtech). Percentage cell viability was calculated relative to the untreated control. The LC50 was defined as the concentration of AMP treatment that results in 50% lethality of HaCat cells and was determined from the dose-response curves.

[4] = 50% growth inhibition, RPMI 1640 + 2% glucose, 37 °C, 20 h, OD600
[5] = 90% growth inhibition, RPMI 1640 + 2% glucose, 37 °C, 20 h, OD600

CC[C@H](C)[C@H](NC(=O)[C@H](C)NC(=O)[C@H](CCCCN)NC(=O)[C@@H]1CCCN1C(=O)[C@@H](NC(=O)[C@H](CC(C)C)NC(=O)[C@H](CCCCN)NC(=O)[C@H](Cc1ccccc1)NC(=O)[C@H](CC(C)C)NC(=O)[C@@H](N)Cc1ccccc1)[C@@H](C)CC)C(=O)N[C@@H](CCCCN)C(=O)N[C@@H](CCCCN)C(=O)N[C@@H](CC(C)C)C(=O)N[C@H](C(=O)N[C@@H](CO)C(=O)N[C@@H](CCCCN)C(=O)N[C@@H](Cc1ccccc1)C(=O)N[C@@H](CCCCN)C(N)=O)[C@@H](C)CC [AamAP1-Lysa] (H-FLFKLIPKAIKKLISKFK-NH2)
Modal MIC (E. coli LEC001): 3.6 µM | Modal MIC (E. coli NCTC 12923): 1.8 µM | Modal MIC (P. aeruginosa NCTC 13437): 7.2 µM | Modal MIC (P. aeruginosa PAO1; shown in µM): 7.2 µM | Modal MIC (A. baumannii ATCC 17978): 0.9 µM | Modal MIC (A. baumannii AYE): 1.8 µM | Modal MIC (K. pneumoniae M6): 3.6 µM | Modal MIC (K. pneumoniae NCTC 13368): 3.6 µM | Modal MIC (S. aureus (MRSA) 1199B): 1.8 µM | Modal MIC [1]: 0.9 µM | Modal MIC (S. aureus (MRSA) USA300): 1.8 µM | Modal MIC [2]: 1.8 µM | Modal MIC50 (C. auris TDG 1912; [4]): > 128 µg/mL | Modal MIC90 (C. auris TDG 1912; [5]): > 128 µg/mL | Modal MIC50 (C. auris TDG 1912; shown in µM): > 57.8 µM | Modal MIC90 (C. auris TDG 1912; shown in µM): > 57.8 µM | Modal MIC50 (C. albicans NCPF 3281): 14.4 µM | Modal MIC90 (C. albicans NCPF 3281): 28.8 µM | Modal MIC50 (C. glabrata NCPF 8018): 57.8 µM | Modal MIC90 (C. glabrata NCPF 8018): 57.8 µM | Modal MIC50 (C. krusei NCPF 3876): 7.2 µM | Modal MIC90 (C. krusei NCPF 3876): 7.2 µM | Modal MIC50 [3]: 14.4 µM | Modal MIC90 [3]: 14.4 µM | Modal MIC50 (C. tropicalis NCPF 8760): 0.9 µM | Modal MIC90 (C. tropicalis NCPF 8760): 0.9 µM | HC10 (concentration causing 10% hemolysis) (human erythrocytes): 53 µg/mL | HC50 (concentration causing 50% hemolysis) (human erythrocytes): 256 µg/mL | % HaCat cell death at initial screening (256μg/mL) ± SD (HaCat cell line): 94.8 ± 8.2%

CC[C@H](C)[C@H](NC(=O)[C@H](CCCCN)NC(=O)[C@H](CCC(=O)O)NC(=O)[C@H](Cc1c[nH]c2ccccc12)NC(=O)[C@H](Cc1ccccc1)NC(=O)[C@H](CCCCN)NC(=O)CNC(=O)[C@H](CC(C)C)NC(=O)[C@H](C)N)C(=O)N[C@@H](CCCCN)C(=O)N[C@@H](CO)C(=O)N[C@@H](CC(C)C)C(=O)N[C@@H](Cc1ccccc1)C(N)=O [A1F5K8-IsCTa] (H-ALGKFWEKIKSLF-NH2)
Modal MIC (E. coli LEC001): 5 µM | Modal MIC (E. coli NCTC 12923): 5 µM | Modal MIC (P. aeruginosa NCTC 13437): 39.9 µM | Modal MIC (P. aeruginosa PAO1; MHB, 37 °C, 20 h, OD600, min. three biological repeats): > 128 µg/mL | Modal MIC (P. aeruginosa PAO1; shown in µM): > 79.9 µM | Modal MIC (A. baumannii ATCC 17978): 2.5 µM | Modal MIC (A. baumannii AYE): 5 µM | Modal MIC (K. pneumoniae M6): 10 µM | Modal MIC (K. pneumoniae NCTC 13368): 10 µM | Modal MIC (S. aureus (MRSA) 1199B): 5 µM | Modal MIC [1]: 10 µM | Modal MIC (S. aureus (MRSA) USA300): 10 µM | Modal MIC [2]: 2.5 µM | Modal MIC50 (C. auris TDG 1912; [4]): > 128 µg/mL | Modal MIC90 (C. auris TDG 1912; [5]): > 128 µg/mL | Modal MIC50 (C. auris TDG 1912; shown in µM): > 79.9 µM | Modal MIC90 (C. auris TDG 1912; shown in µM): > 79.9 µM | Modal MIC50 (C. albicans NCPF 3281): 39.9 µM | Modal MIC90 (C. albicans NCPF 3281): 39.9 µM | Modal MIC50 (C. glabrata NCPF 8018): 39.9 µM | Modal MIC90 (C. glabrata NCPF 8018): 79.9 µM | Modal MIC50 (C. krusei NCPF 3876): 19.9 µM | Modal MIC90 (C. krusei NCPF 3876): 19.9 µM | Modal MIC50 [3]: 39.8 µM | Modal MIC90 [3]: 39.8 µM | Modal MIC50 (C. tropicalis NCPF 8760): 5 µM | Modal MIC90 (C. tropicalis NCPF 8760): 5 µM | HC10 (concentration causing 10% hemolysis) (human erythrocytes): 102 µg/mL | % HaCat cell death at initial screening (256μg/mL) ± SD (HaCat cell line): 83.6 ±9.2%
